Reference: patent publication US9834558B2, “Substituted bridged urea analogs as sirtuin modulators” (GLAXOSMITHKLINE LLC, priority 2013, dated 2017)

Molecular target: T1, SIRT1 (Homo sapiens, UniProt Q96EB6)
T1 sequence (Q96EB6 1-747): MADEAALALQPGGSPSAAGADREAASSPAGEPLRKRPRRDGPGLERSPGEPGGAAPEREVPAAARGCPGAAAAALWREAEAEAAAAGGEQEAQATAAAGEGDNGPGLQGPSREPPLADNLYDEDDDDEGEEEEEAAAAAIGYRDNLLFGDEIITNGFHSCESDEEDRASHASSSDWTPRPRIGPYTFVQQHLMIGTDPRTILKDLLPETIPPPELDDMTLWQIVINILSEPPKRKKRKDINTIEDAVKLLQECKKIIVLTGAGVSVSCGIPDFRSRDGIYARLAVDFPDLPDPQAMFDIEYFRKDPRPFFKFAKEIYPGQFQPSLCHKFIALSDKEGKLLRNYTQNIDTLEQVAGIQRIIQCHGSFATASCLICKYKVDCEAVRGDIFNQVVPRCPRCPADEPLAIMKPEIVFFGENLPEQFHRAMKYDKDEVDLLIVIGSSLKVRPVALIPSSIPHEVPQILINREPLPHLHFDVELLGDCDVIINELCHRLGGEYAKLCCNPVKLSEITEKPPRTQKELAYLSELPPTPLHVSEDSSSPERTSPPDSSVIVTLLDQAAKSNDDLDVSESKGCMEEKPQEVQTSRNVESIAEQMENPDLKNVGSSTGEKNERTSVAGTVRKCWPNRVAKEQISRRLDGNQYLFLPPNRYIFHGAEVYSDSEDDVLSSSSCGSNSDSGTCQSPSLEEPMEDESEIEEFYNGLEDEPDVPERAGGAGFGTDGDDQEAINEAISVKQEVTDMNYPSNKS
Test: Trp mass spectrometry assay of SIRT1 activation
Type: biochemical
Settings: Trp peptide assay; for TRP Activity (EC1.5): EC1.5 = concentration that results in 150% activation of SIRT1; for Emax: maximum activity relative to control (100%), read-out: TRP MAX RESP (percent maximum fold activation)
Procedure, shortened: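 Activation read-out: mass-spec measurement of O-acetyl-ADP-ribose or deacetylated Trp peptide versus compound-free controls, giving EC1.5 and Percent Maximum Activation. Reactions ran 25 min at 25 °C, pH 7.5, with 120 μM βNAD+, 0.5 μM acetylated p53-derived peptide and 10 nM His-tagged SIRT1.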

With `O=C(Nc1cnccn1)N1c2nc(N3CCC(C(F)(F)F)CC3)ccc2N2CC[C@H]1C2` [(9S)-N-(pyrazin-2-yl)-5-[4-(trifluoromethyl)piperidin-1-yl]-1,6,8-triazatricyclo[7.2.1.0 {2,7}]dodeca-2(7),3,5-triene-8-carboxamide] the “TRP Activity (EC1.5)” value was “A (A (EC1.5<1 μM))” and the Emax was greater than 150%.
For `O=C(Nc1cnccn1)N1c2nc(-c3ccc(C(F)(F)F)nc3)ccc2N2CC[C@H]1C2` [(9S)-N-(pyrazin-2-yl)-5-[6-(trifluoromethyl)pyridin-3-yl]-1,6,8-triazatricyclo[7.2.1.0 {2,7}]dodeca-2(7),3,5-triene-8-carboxamide], the “TRP Activity (EC1.5)” value was “B (B (EC1.5 1-25 μM))” and the Emax was greater than 150%.
In the case of `O=C(Nc1cnccn1)N1c2nc(N3CCC[C@H](C(F)(F)F)C3)ccc2N2CCC[C@H]1C2` [(9S)-N-(pyrazin-2-yl)-5-[(3S)-3-(trifluoromethyl)piperidin-1-yl]-1,6,8-triazatricyclo[7.3.1.0 {2,7}]trideca-2(7),3,5-triene-8-carboxamide], the “TRP Activity (EC1.5)” value is reported as “A (A (EC1.5<1 μM))” and the Emax is reported as greater than 150%.
`O=C(Nc1cccnn1)N1c2nc(-c3ccnc(C(F)(F)F)c3)ccc2N2CCC[C@H]1C2` [(9S)-N-(pyridazin-3-yl)-5-[2-(trifluoromethyl)pyridin-4-yl]-1,6,8-triazatricyclo[7.3.1.0 {2,7}]trideca-2(7),3,5-triene-8-carboxamide] was tested, and the “TRP Activity (EC1.5)” value was “A (A (EC1.5<1 μM))” and the Emax was greater than 150%.
In the case of `O=C(Nc1ccccn1)N1c2nc(N3CCOC(C(F)(F)F)C3)ccc2N2CC[C@H]1C2` (stereo partly drawn) [(9S)-N-(pyridin-2-yl)-5-[2-(trifluoromethyl)morpholin-4-yl]-1,6,8-triazatricyclo[7.2.1.0 {2,7}]dodeca-2(7),3,5-triene-8-carboxamide], the “TRP Activity (EC1.5)” value is reported as “B (B (EC1.5 1-25 μM))” and the Emax is reported as greater than 150%.
`O=C(Nc1ccccn1)N1c2nc(-c3ccnc(C(F)(F)F)c3)ccc2N2CCC[C@H]1C2` [(9S)-N-(pyridin-2-yl)-5-[2-(trifluoromethyl)pyridin-4-yl]-1,6,8-triazatricyclo[7.3.1.0 {2,7}]trideca-2(7),3,5-triene-8-carboxamide] was tested, and the “TRP Activity (EC1.5)” value was “A (A (EC1.5<1 μM))” and the Emax was greater than 150%.
For `O=C(Nc1ccccn1)N1c2nc(N3CCC(C(F)(F)F)CC3)ccc2N2CC[C@H]1C2` [(9S)-N-(pyridin-2-yl)-5-[4-(trifluoromethyl)piperidin-1-yl]-1,6,8-triazatricyclo[7.2.1.0 {2,7}]dodeca-2,4,6-triene-8-carboxamide], the “TRP Activity (EC1.5)” value was “A (A (EC1.5<1 μM))” and the Emax was greater than 150%.
In the case of `O=C(Nc1ccccn1)N1c2nc(N3CCC[C@@H]3C(F)(F)F)ccc2N2CC[C@H]1C2` [(9S)-N-(pyridin-2-yl)-5-[(2R)-2-(trifluoromethyl)pyrrolidin-1-yl]-1,6,8-triazatricyclo[7.2.1.0 {2,7}]dodeca-2(7),3,5-triene-8-carboxamide], the “TRP Activity (EC1.5)” value is reported as “A (A (EC1.5<1 μM))” and the Emax is reported as greater than 150%.
`O=C(Nc1ccccn1)N1c2nc(N3CCC[C@@H]3C(F)(F)F)ccc2N2CCC[C@H]1C2` [(9S)-N-(pyridin-2-yl)-5-[(2R)-2-(trifluoromethyl)pyrrolidin-1-yl]-1,6,8-triazatricyclo[7.3.1.0 {2,7}]trideca-2(7),3,5-triene-8-carboxamide] was tested, and the “TRP Activity (EC1.5)” value was “A (A (EC1.5<1 μM))” and the Emax was greater than 150%.
`O=C(Nc1ccccn1)N1c2nc(N3CCC[C@H]3C(F)(F)F)ccc2N2CC[C@H]1C2` [(9S)-N-(pyridin-2-yl)-5-[(2S)-2-(trifluoromethyl)pyrrolidin-1-yl]-1,6,8-triazatricyclo[7.2.1.0 {2,7}]dodeca-2(7),3,5-triene-8-carboxamide] was tested, and the “TRP Activity (EC1.5)” value was “B (B (EC1.5 1-25 μM))” and the Emax was greater than 150%.
For `O=C(Nc1ccccn1)N1c2nc(N3CCC[C@H]3C(F)(F)F)ccc2N2CCC[C@H]1C2` [(9S)-N-(pyridin-2-yl)-5-[(2S)-2-(trifluoromethyl)pyrrolidin-1-yl]-1,6,8-triazatricyclo[7.3.1.0 {2,7}]trideca-2(7),3,5-triene-8-carboxamide], the “TRP Activity (EC1.5)” value was “B (B (EC1.5 1-25 μM))” and the Emax was greater than 150%.
